Results published in PubChem BioAssay AID256 (DTP/NCI, 2004).
Toxic doses and inconclusive results are not listed.

System: CD2F1 mice, L1210 leukemia ip, survival T/C
Assay: NCI In Vivo Anticancer Drug Screen. Data for tumor model L1210 Leukemia (intraperitoneal) in CD2F1 (CDF1) mice
Settings: higher = longer survival
Method in brief: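 Each value reflects a quotient of treated over vehicle control outcomes in mice with a transplanted tumor.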

[1] = endpoint: mean survival time, dose: 100.0 mg/kg/injection, schedule: Q01DX001 (ip), vehicle: saline with Tween-80

## Cn1cc(C2OC(CO)C(O)C2O)c(=O)[nH]c1=O (configuration not stated)
endpoint: mean survival time, dose: 12.5 mg/kg/injection, schedule: Q01DX005 (ip), vehicle: water
  T/C: 97 % of control
endpoint: mean survival time, dose: 25.0 mg/kg/injection, schedule: Q01DX005 (ip), vehicle: water
  T/C: 103 % of control
endpoint: mean survival time, dose: 50.0 mg/kg/injection, schedule: Q01DX005 (ip), vehicle: water
  T/C: 103 % of control
endpoint: mean survival time, dose: 100.0 mg/kg/injection, schedule: Q01DX005 (ip), vehicle: water
  T/C: 100 % of control
endpoint: mean survival time, dose: 200.0 mg/kg/injection, schedule: Q01DX005 (ip), vehicle: water
  T/C: 103 % of control

## CN(C)[C-]=O.[C-]#[O+].[C-]#[O+].[Fe+6].[c-]1[c-][c-][cH-][c-]1
endpoint: mean survival time, dose: 75.0 mg/kg/injection, schedule: Q01DX001 (ip), vehicle: other
  T/C: 94 % of control
endpoint: mean survival time, dose: 150.0 mg/kg/injection, schedule: Q01DX001 (ip), vehicle: other
  T/C: 88 % of control

## Cc1cccc(NC(=O)COc2c(C)cc(Cl)cc2Cl)c1
endpoint: mean survival time, dose: 100.0 mg/kg/injection, schedule: Q04DX002 (ip), vehicle: saline with Tween-80
  T/C: 98 % of control
endpoint: mean survival time, dose: 200.0 mg/kg/injection, schedule: Q04DX002 (ip), vehicle: saline with Tween-80
  T/C: 94 % of control
endpoint: mean survival time, dose: 400.0 mg/kg/injection, schedule: Q04DX002 (ip), vehicle: saline with Tween-80
  T/C: 90 % of control

## C=C1C(=O)OC2/C=C(\CO)CC/C=C(\CO)CC(OC(=O)C(C)C)C12 (configuration not stated)
endpoint: mean survival time, dose: 3.75 mg/kg/injection, schedule: Q01DX009 (ip), vehicle: Klucel (hydroxypropylcellulose) (HPC)
  T/C: 100 % of control
endpoint: mean survival time, dose: 7.5 mg/kg/injection, schedule: Q01DX009 (ip), vehicle: Klucel (hydroxypropylcellulose) (HPC)
  T/C: 88 % of control
endpoint: mean survival time, dose: 15.0 mg/kg/injection, schedule: Q01DX009 (ip), vehicle: Klucel (hydroxypropylcellulose) (HPC)
  T/C: 97 % of control
endpoint: mean survival time, dose: 30.0 mg/kg/injection, schedule: Q01DX009 (ip), vehicle: Klucel (hydroxypropylcellulose) (HPC)
  T/C: 105 % of control

## O=CC(NC(=O)OCc1ccccc1)C(O)C(O)C(O)CO (configuration not stated)
endpoint: mean survival time, dose: 25.0 mg/kg/injection, schedule: Q01DX001 (ip), vehicle: saline with Tween-80
  T/C: 105 % of control
endpoint: mean survival time, dose: 50.0 mg/kg/injection, schedule: Q01DX001 (ip), vehicle: saline with Tween-80
  T/C: 102 % of control
[1]
  T/C: 102 % of control

## C=COC(=O)C(Cc1ccccc1)NC(=O)OCc1ccccc1 (configuration not stated)
endpoint: median survival time, dose: 25.0 mg/kg/injection, schedule: Q01DX009 (ip), vehicle: saline with Tween-80
  T/C: 96 % of control
endpoint: median survival time, dose: 50.0 mg/kg/injection, schedule: Q01DX009 (ip), vehicle: saline with Tween-80
  T/C: 96 % of control
endpoint: median survival time, dose: 100.0 mg/kg/injection, schedule: Q01DX009 (ip), vehicle: saline with Tween-80
  T/C: 93 % of control
endpoint: median survival time, dose: 200.0 mg/kg/injection, schedule: Q01DX009 (ip), vehicle: saline with Tween-80
  T/C: 93 % of control
endpoint: median survival time, dose: 400.0 mg/kg/injection, schedule: Q01DX009 (ip), vehicle: saline with Tween-80
  T/C: 101 % of control

## NC(CSC(c1ccccc1)(c1ccccc1)c1ccc(F)cc1)C(=O)O (configuration not stated)
endpoint: mean survival time, dose: 25.0 mg/kg/injection, schedule: Q01DX009 (ip), vehicle: saline
  T/C: 181 % of control
endpoint: mean survival time, dose: 50.0 mg/kg/injection, schedule: Q01DX009 (ip), vehicle: saline
  T/C: 192 % of control

## CC[C@@]1(O)C[C@H](OC2CC(N(C)C)C(OC3CC(O)C(OC4CC(O)C(O)C(C)O4)C(C)O3)C(C)O2)c2c(cc3c(c2O)C(=O)c2c(O)ccc(O)c2C3=O)[C@H]1C(=O)OC (some centres not stated)
endpoint: mean survival time, dose: 3.8 mg/kg/injection, schedule: Q01DX001 (ip), vehicle: other
  T/C: 117 % of control
endpoint: mean survival time, dose: 7.5 mg/kg/injection, schedule: Q01DX001 (ip), vehicle: other
  T/C: 120 % of control
endpoint: mean survival time, dose: 15.0 mg/kg/injection, schedule: Q01DX001 (ip), vehicle: other
  T/C: 96 % of control

## COC(OC)C(OC(C)=O)C(OC(C)=O)C(COC(C)=O)OC(C)=O (configuration not stated)
endpoint: mean survival time, dose: 100.0 mg/kg/injection, schedule: Q01DX001 (ip), vehicle: saline
  T/C: 107 % of control
endpoint: mean survival time, dose: 200.0 mg/kg/injection, schedule: Q01DX001 (ip), vehicle: saline
  T/C: 95 % of control
endpoint: mean survival time, dose: 400.0 mg/kg/injection, schedule: Q01DX001 (ip), vehicle: saline
  T/C: 101 % of control

## CC(=O)N(C)[Si](C)(C)C
[1]
  T/C: 96 % of control
endpoint: mean survival time, dose: 100.0 mg/kg/injection, schedule: Q01DX009 (ip), vehicle: saline sonified
  T/C: 98 % of control
endpoint: mean survival time, dose: 100.0 mg/kg/injection, schedule: Q04DX003 (ip), vehicle: saline
  T/C: 98 % of control
endpoint: mean survival time, dose: 200.0 mg/kg/injection, schedule: Q01DX001 (ip), vehicle: saline with Tween-80
  T/C: 100 % of control
endpoint: mean survival time, dose: 200.0 mg/kg/injection, schedule: Q01DX009 (ip), vehicle: saline sonified
  T/C: 96 % of control
endpoint: mean survival time, dose: 200.0 mg/kg/injection, schedule: Q04DX003 (ip), vehicle: saline
  T/C: 97 % of control
endpoint: mean survival time, dose: 400.0 mg/kg/injection, schedule: Q01DX001 (ip), vehicle: saline with Tween-80
  T/C: 106 % of control
endpoint: mean survival time, dose: 400.0 mg/kg/injection, schedule: Q01DX009 (ip), vehicle: saline sonified
  T/C: 96 % of control
endpoint: mean survival time, dose: 400.0 mg/kg/injection, schedule: Q04DX003 (ip), vehicle: saline
  T/C: 101 % of control

## NCCN1c2ccccc2Sc2ccccc21
endpoint: mean survival time, dose: 12.5 mg/kg/injection, schedule: Q01DX009 (ip), vehicle: other
  T/C: 105 % of control
endpoint: mean survival time, dose: 25.0 mg/kg/injection, schedule: Q01DX009 (ip), vehicle: other
  T/C: 98 % of control
endpoint: mean survival time, dose: 50.0 mg/kg/injection, schedule: Q01DX009 (ip), vehicle: other
  T/C: 113 % of control
